Source: US20120035206A1, “PREPARATION AND APPLICATION OF NOVEL ANTIBACTERIAL AND ANTICANCER COMPOUNDS AND THEIR DERIVATIVES” (priority 2009, published 2012)
Converted amounts (≈) assume the structure as drawn.

How the values were obtained:
Type in all cases: cell-based
[1] = system: B01092; assay: In vitro anticancer MTT experiment; settings: concentration 5 ug/ml, 48 h or 72 h, read-out: inhibition ratio B01092
Procedure: (§1) In vitro anticancer experiments of 25 compounds as anti-bacterial and anti-cancer compounds in the patent were tested. In the test, 14 kinds of cancer cells were used as tested cancer cells. And the results obtained by MTT method were shown in table 2 (the inhibition ratio was obtained when the concentration was 5 ug/ml). Tested Cancer Cells: SGC7901, HTB-38HT-29, CRL-2233NU-398, CRL-1469PANC-1, B0192, HTB-131MDA-453, CRL-1435PC-3, FTC133, AS24391, HTB-95637. (Cancer cells were from Chinese Military Academy of Medical Sciences). Cells Culture: Culture solution was composed of RPMI 1640 medium, 10% (VAT) Fetal calf serum and 0.01% L-glutamine. Cultured cells were maintained at 37° C. in an incubator with 5% CO2. The cells at logarithmic growth phase were used in the experiment. MTT Experiment: Single cell suspension was obtained by digesting cells with 0.25% trypsin. The cells at logarithmic growth phase were collected and seeded in a 96-well plate at a concentration of 6000-7000 cells per well. After culturing for 12 h at 37° C. in the incubator with 5% CO2, the cells were again incubated with the tested compounds of various concentrations for 48 h or 72 h. Pure cultures and cells without drug were taken as blank reference and negative reference, and 8 Wells of each group were taken. Twenty microliter of MTT (5 mg/mL) was added to each well, and the mixed solutions were incubation for 4 h. The formazan product was dissolved by dimethyl sulfoxide (DMSO, 150 μL), and the optical density (O.D.) was read at 570 nm. The Inhibition Ratio was calculated by the following formula: Inhibition Ratio=(Anegative control−Asample)/(Anegative control−Ablank control)

[2] = system: HTB-95637; assay: In vitro anticancer MTT experiment; settings: concentration 5 ug/ml, 48 h or 72 h, read-out: inhibition ratio HTB-95637
Procedure: as §1

[3] = system: A375; assay: In vitro anticancer MTT experiment; settings: Homo sapiens, A-375, concentration 5 ug/ml, 48 h or 72 h, read-out: inhibition ratio A375
Procedure: as §1

[4] = system: HTB-131MDA-MB-453; assay: In vitro anticancer MTT experiment; settings: concentration 5 ug/ml, 48 h or 72 h, read-out: inhibition ratio HTB-131MDA-MB-453
Procedure: as §1

[5] = system: L1210; assay: In vitro anticancer MTT experiment; settings: Mus musculus, concentration 5 ug/ml, 48 h or 72 h, read-out: inhibition ratio L1210
Procedure: as §1

[6] = system: FTC 133; assay: In vitro anticancer MTT experiment; settings: Homo sapiens, concentration 5 ug/ml, 48 h or 72 h, read-out: inhibition ratio FTC 133
Procedure: as §1

[7] = system: CRL-1469PANC-1; assay: In vitro anticancer MTT experiment; settings: concentration 5 ug/ml, 48 h or 72 h, read-out: inhibition ratio CRL-1469PANC-1
Procedure: as §1

[8] = system: AS24391; assay: In vitro anticancer MTT experiment; settings: concentration 5 ug/ml, 48 h or 72 h, read-out: inhibition ratio AS24391
Procedure: as §1

[9] = system: HTB-94; assay: In vitro anticancer MTT experiment; settings: concentration 5 ug/ml, 48 h or 72 h, read-out: inhibition ratio HTB-94
Procedure: as §1

[10] = system: SGC7901; assay: In vitro anticancer MTT experiment; settings: Homo sapiens, SGC-7901, concentration 5 ug/ml, 48 h or 72 h, read-out: inhibition ratio SGC7901
Procedure: as §1

[11] = system: HTB-38HT-29; assay: In vitro anticancer MTT experiment; settings: concentration 5 ug/ml, 48 h or 72 h, read-out: inhibition ratio HTB-38HT-29
Procedure: as §1

[12] = system: CRL-2233SNU-398; assay: In vitro anticancer MTT experiment; settings: concentration 5 ug/ml, 48 h or 72 h, read-out: inhibition ratio CRL-2233SNU-398
Procedure: as §1

[13] = system: L428; assay: In vitro anticancer MTT experiment; settings: Homo sapiens, L-428, concentration 5 ug/ml, 48 h or 72 h, read-out: inhibition ratio L428
Procedure: as §1

[14] = system: CRL-1435PC-3; assay: In vitro anticancer MTT experiment; settings: concentration 5 ug/ml, 48 h or 72 h, read-out: inhibition ratio CRL-1435PC-3
Procedure: as §1

[15] = system: C. Krusei; assay: In vitro antibacterial (antifungal) test, two-fold dilution MIC; settings: Pichia kudriavzevii, RPMI 1640, culture 2-7 days
Procedure: (§2) In vitro antibacterial experiments of 25 compounds as anti-bacterial and anti-cancer compounds in the patent were tested using 14 kinds of bacteria. Tested bacteria: C. albicans, C. tropicalis, C. neoformans, E. floccosum, M. gypseum, A. niger, S. schenekn, C. parapsilosis, C. glabrata, C. Krusei, Trichoderma, Gibberella, Setrosphaeria turcica, Fusarium Oxysporum Vasinfectum. (Bacteria were from the Dermatology Hospital of Chinese Academy of Medical Sciences, Nanjing, China.)
(§3) The Preparation of tested Bacteria solution was following: incubated Bacteria were added to 5 ml physiological saline, and then they were mashed and placed with ultrasound. The solution was fully mixed, and insoluble substances were removed. The treated solution was called the original bacterium solution. In the test, the bacteria concentration in the original bacterium solution was adjusted to […].
(§4) Tested Methods: the tested compounds were dissolved in dimethyl sulfoxide. and the solution was diluted with sterile distilled water. And the distilled solution was added to sterilized RPMI 1640 medium. The concentration of the compounds were adjusted to 256, 128, 64, 32, 16, 8, 4, 2, 1, 0.5, 0.25, 0.125 ug*ml-1. Then the adjusted solutions were inoculated with tested bacteria, and the tested systems were placed in the constant temperature oven to culture for 2-7 days. The concentration at which there was no growing of fungi was taken as the minimum inhibitory concentration (MIC).

[16] = system: Setosphaeria turcica; assay: as above; settings: Exserohilum turcicum, RPMI 1640, culture 2-7 days
Procedure: as §2, §3, §4

[17] = system: Terchoderma; assay: as above; settings: Trichoderma, RPMI 1640, culture 2-7 days
Procedure: as §2, §3, §4

[18] = system: C. albicans; assay: as above; settings: Candida albicans, read-out: MIC C. albicas
Procedure: as §2, §3, §4

[19] = system: E. floccosum; assay: as above; settings: Epidermophyton floccosum, RPMI 1640, culture 2-7 days
Procedure: as §2, §3, §4

[20] = system: C. parapsilosis; assay: as above; settings: Lodderomyces parapsilosis, RPMI 1640, culture 2-7 days
Procedure: as §2, §3, §4

[21] = system: C. tropicalis; assay: as above; settings: Candida tropicalis, RPMI 1640, culture 2-7 days
Procedure: as §2, §3, §4

[22] = system: C. glabrata; assay: as above; settings: Nakaseomyces glabratus, RPMI 1640, culture 2-7 days
Procedure: as §2, §3, §4

[23] = system: M. gypseum; assay: as above; settings: Nannizzia gypsea, RPMI 1640, culture 2-7 days
Procedure: as §2, §3, §4

[24] = system: S. schenekn; assay: as above; settings: RPMI 1640, culture 2-7 days
Procedure: as §2, §3, §4

[25] = system: C. neoformans; assay: as above; settings: Cryptococcus neoformans, RPMI 1640, culture 2-7 days
Procedure: as §2, §3, §4

[26] = system: Fusarium oxysporum vasinfectum; assay: as above; settings: RPMI 1640, culture 2-7 days
Procedure: as §2, §3, §4

[27] = system: gibberella; assay: as above; settings: RPMI 1640, culture 2-7 days
Procedure: as §2, §3, §4

Row | SMILES | inhibition at 5 µg/mL [1] [%] | inhibition at 5 µg/mL [3] [%] | inhibition at 5 µg/mL [5] [%] | inhibition at 5 µg/mL [6] [%] | inhibition at 5 µg/mL [7] [%] | inhibition at 5 µg/mL [8] [%] | inhibition at 5 µg/mL [9] [%] | inhibition at 5 µg/mL [10] [%] | inhibition at 5 µg/mL [13] [%] | MIC [16] [µg/mL] | MIC [17] [µg/mL] | MIC [18] [µg/mL] | MIC [19] [µg/mL] | MIC [20] [µg/mL] | MIC [21] [µg/mL] | MIC [22] [µg/mL] | MIC [23] [µg/mL] | MIC [24] [µg/mL] | MIC [25] [µg/mL] | MIC [26] [µg/mL] | also measured
1 | O=C1/C(=C/Cl)CSc2ccc(Cl)cc21 [Compound 4, (Z)-6-chloro-3-(chloromethylene)thiochroman-4-one] | 56.7 | 50.4 | 82.3 | 46.5 | 68 | 46.2 | 68 | 60.8 | 66.6 | 8 (≈ 32.6 µM) | 16 (≈ 65.3 µM) | 4 (≈ 16.3 µM) | 2 (≈ 8.16 µM) | 2 (≈ 8.16 µM) | 8 (≈ 32.6 µM) | 16 (≈ 65.3 µM) | 16 (≈ 65.3 µM) | 4 (≈ 16.3 µM) | 4 (≈ 16.3 µM) | 32 (≈ 131 µM) | inhibition at 5 µg/mL [2]: 52.8%; inhibition at 5 µg/mL [4]: 57.6%; inhibition at 5 µg/mL [11]: 67.3%; inhibition at 5 µg/mL [12]: 75.5%; inhibition at 5 µg/mL [14]: 54.2%; MIC [15]: 32 µg/mL (≈ 131 µM)
2 | Cc1ccc2c(c1)C(=O)/C(=C/Br)CS2 [Compound 8, (Z)-3-(bromomethylene)-6-methylthiochroman-4-one] | 39 | 37.9 | 84.6 | 75.6 | 47.9 | 40 | 56.7 | 60.6 | 44.2 | 64 (≈ 238 µM) | 32 (≈ 119 µM) | 32 (≈ 119 µM) | 64 (≈ 238 µM) | 32 (≈ 119 µM) | 64 (≈ 238 µM) | 64 (≈ 238 µM) | 64 (≈ 238 µM) | 32 (≈ 119 µM) | 8 (≈ 29.7 µM) | 64 (≈ 238 µM) | inhibition at 5 µg/mL [2]: 56.4%; inhibition at 5 µg/mL [4]: 47.3%; inhibition at 5 µg/mL [11]: 54.9%; inhibition at 5 µg/mL [12]: 46.4%; inhibition at 5 µg/mL [14]: 50.6%; MIC [15]: 64 µg/mL (≈ 238 µM)
3 | O=C1/C(=C/Cl)CSc2sccc21 [Compound 19, (Z)-5-(chloromethylene)-5,6-dihydro-4H-thieno[2,3-b]thiopyran-4-one] | 36.5 | 46.2 | 76.4 | 54.8 | 67.9 | 53 | 48.5 | 56.4 | 47.5 | 32 (≈ 148 µM) | 4 (≈ 18.5 µM) | 8 (≈ 36.9 µM) | 4 (≈ 18.5 µM) | 4 (≈ 18.5 µM) | 16 (≈ 73.8 µM) | 32 (≈ 148 µM) | 16 (≈ 73.8 µM) | 32 (≈ 148 µM) | 16 (≈ 73.8 µM) | 16 (≈ 73.8 µM) | inhibition at 5 µg/mL [4]: 47.9%; inhibition at 5 µg/mL [14]: 41.3%; MIC [27]: 8 µg/mL (≈ 36.9 µM)
4 | O=C1/C(=C\Cl)SCc2ccccc21 [Compound 26, (E)-3-(chloromethylene)isothiochroman-4-one] | – | – | – | – | – | – | – | – | – | 2 (≈ 9.49 µM) | 8 (≈ 38 µM) | 2 (≈ 9.49 µM) | 4 (≈ 19 µM) | 32 (≈ 152 µM) | 8 (≈ 38 µM) | 16 (≈ 75.9 µM) | 16 (≈ 75.9 µM) | 8 (≈ 38 µM) | 4 (≈ 19 µM) | 4 (≈ 19 µM) | MIC [27]: 16 µg/mL (≈ 75.9 µM); MIC [15]: 8 µg/mL (≈ 38 µM)
5 | Cc1ccc(SC2/C(=C/Cl)CSc3ccc(C)cc32)cc1 (stereo not drawn) [Compound 29, (E)-3-(chloromethylene)-6-methyl-4-(p-tolylthio)thiochroman] | 26.5 | 30.2 | 33.6 | 32.2 | 17.4 | 15.2 | 23.4 | 23.3 | 13.2 | – | 64 (≈ 192 µM) | – | 64 (≈ 192 µM) | 32 (≈ 96.1 µM) | – | – | 64 (≈ 192 µM) | 32 (≈ 96.1 µM) | – | – | inhibition at 5 µg/mL [11]: 19.2%; inhibition at 5 µg/mL [12]: 21.5%; MIC [27]: 16 µg/mL (≈ 48.1 µM)
